Common to all, as to type: cell-based
Test [1] has as its system Enterobacter cloacae IFO 12937. As to the kind of experiment: MIC by agar dilution method (Experiment C), Enterobacter cloacae IFO 12937. The conditions noted are these: IFO12937, Trypticase Soy agar, about 10^8 CFU/ml, 37° C. overnight, read-out: Minimal inhibitory concentration (MIC). As to the method: (§1) The tables given below set forth the minimal inhibitory concentrations (MIC) of some typical compounds [I]C as obtained in the working examples. The minimal inhibitory concentrations of the tested compounds are determined by the agar dilution method. Namely, 1.0 ml. of aqueous solution of the tested compounds diluted by serial dilutions is poured into test petri dish. Subsequently 9.0 ml. of Trypticase Soy agar is poured into the dish and mixed. On the mixed agar plate, one loopful of bacterial suspension (about 10^8 CFU/ml.) of test microorganism is streaked. After the incubation at 37° C. overnight, the lowest concentration of the tested compounds which cause apparently complete inhibition of growth of the test microorganism is taken to be minimal inhibitory concentration. (1) Enterobacter cloacae IFO 12937

Test [2] deals with Klebsiella pneumoniae TN 1711. As to the kind of experiment: MIC by agar dilution method (Experiment C), Klebsiella pneumoniae TN 1711. As to conditions: TN1711, Trypticase Soy agar, about 10^8 CFU/ml, 37° C. overnight, read-out: Minimal inhibitory concentration (MIC). As to the method:
as §1, with “(2) Klebsiella pneumoniae TN 1711” for “(1) Enterobacter cloacae IFO 12937”

For the next test, the system named is Escherichia coli 0-111. Briefly: Antibacterial test (MIC), Escherichia coli 0-111. As to conditions: Escherichia coli, 0111; medium TSA; read-out: Minimum inhibitory concentration (MIC). An excerpt: (§2) The following is media and compounds employed in the antibacterial test.
(§3) TSA=Trypticase soy agar [Baltimore Biologicals (U.S.A.)]
(§4) B-TSA=Blood trypticase soy agar

A further test deals with Escherichia coli T-7. Briefly: Antibacterial test (MIC), Escherichia coli T-7. As to conditions: Escherichia coli, T7; medium TSA; read-out: Minimum inhibitory concentration (MIC).
Text: as §2, §3, §4

The subject of test [3] is Staphylococcus aureus 308A-1. As to the kind of experiment: Antibacterial test (MIC), Staphylococcus aureus 308A-1. As to conditions: Staphylococcus aureus, 308A1, read-out: Minimum inhibitory concentration (MIC).
Text: as §2, §3, §4

Test [4] relates to Pseudomonas aeruginosa IFO 3455. As to the kind of experiment: Antibacterial test (MIC), Pseudomonas aeruginosa IFO 3455. The conditions noted are these: Pseudomonas aeruginosa, IFO3455, read-out: Minimum inhibitory concentration (MIC).
Text: as §2, §3, §4

In test [5] the test system is Streptococcus mitis America. As to the kind of experiment: Antibacterial test (MIC), Streptococcus mitis America. The conditions noted are these: Streptococcus mitis, read-out: Minimum inhibitory concentration (MIC).
Text: as §2, §3, §4

Test [6] deals with Streptococcus pyogenes E-14. As to the kind of experiment: Antibacterial test (MIC), Streptococcus pyogenes E-14. The conditions noted are these: Streptococcus pyogenes, E14, read-out: Minimum inhibitory concentration (MIC).
Text: as §2, §3, §4

The test system of test [7] is Streptococcus pneumoniae Type I. As to the kind of experiment: Antibacterial test (MIC), Streptococcus pneumoniae Type I. As to conditions: Streptococcus pneumoniae, read-out: Minimum inhibitory concentration (MIC).
Text: as §2, §3, §4

SMILES strings stand for the structures. Values after ≈ are worked out from the molar mass of the structure shown. Counter-ions that a name gives are not always drawn.

As for `CC(C)(O/N=C(\C(=O)N[C@H]1C(=O)N(S(=O)(=O)O)[C@@H]1C(N)=O)c1csc(N)n1)C(=O)O` (relative stereo) [Example No. 144C, trans-3-[2-(2-amino-4-thiazolyl)-2-(1-methyl-1-carboxyethyloxyimino)acetamido]-4-carbamoyl-2-oxoazetidine-1-sulfonic acid (syn-isomer)], the MIC in [1] stood at 6.25 µg/mL (≈ 13.5 µM); in test [2] it was 3.13 µg/mL (≈ 6.74 µM).
As for `C=CCO/N=C(\C(=O)N[C@H]1C(=O)N(S(=O)(=O)O)[C@H]1C(=O)OC)c1csc(N)n1` (relative stereo) [Example No. 72C, sodium cis-3-[2-(2-amino-4-thiazolyl)-2-allyloxyiminoacetamido]-4-methoxycarbonyl-2-oxoazetidine-1-sulfonate], in [1], the MIC is 1.56 µg/mL.
As to `COC(=O)[C@H]1[C@@H](NC(=O)/C(=N\OCC(=O)O)c2csc(N)n2)C(=O)N1S(=O)(=O)O` (relative stereo) [Example No. 65C, cis-3-[2-(2-amino-4-thiazolyl)-2-carboxylmethyloxyiminoacetamido]-4-methoxycarbonyl-2-oxoazetidine-1-sulfonic acid disodium salt], the MIC in test [1] came to 6.25 µg/mL; in test [2] it was 0.2 µg/mL.
For the compound `COC(=O)C[C@@H]1[C@@H](NC(=O)/C(=N\OC(C)(C)C(=O)O)c2csc(N)n2)C(=O)N1S(=O)(=O)O` (relative stereo) [Example No. 158C, trans-3-[2-(2-amino-4-thiazolyl)-2-(1-methyl-1-carboxyethyloxyimino)acetamido]-4-methoxycarbonylmethyl-2-oxo-azetidine-1-sulfonic acid (syn-isomer)], the MIC stood at 3.13 µg/mL (≈ 6.34 µM) in test [1] and 6.25 µg/mL (≈ 12.7 µM) in test [2].
As to `CCCCCCCCN1CCN(C(=O)N[C@@H](C(=O)NC2CN(S(=O)(=O)O)C2=O)c2ccccc2)C(=O)C1=O` (stereo partly drawn) [Compound G, Sodium 3-[D-2-(4-n-octyl-2,3-dioxo-1-piperazinocarboxamido)-2-phenylacetamido]-2-oxoazetidine-1-sulfonate], the MIC with Escherichia coli 0-111 was 0.78 µg/mL; with Escherichia coli T-7, greater than 100 µg/mL.
Turning to `CC(C)(O/N=C(\C(=O)N[C@H]1C(=O)N(S(=O)(=O)O)[C@H]1C(N)=O)c1csc(N)n1)C(=O)O` (relative stereo) [Example No. 133C, cis-3-[2-(2-amino-4-thiazolyl)-2-(1-methyl-1-carboxyethyloxyimino)acetamido]-4-carbamoyl-2-oxoazetidine-1-sulfonic acid (syn-isomer)], the MIC came out at 1.56 µg/mL (≈ 3.36 µM) in [1] and 0.39 µg/mL (≈ 0.84 µM) in test [2].
For `O=C(NC1CN(S(=O)(=O)O)C1=O)[C@H](NC(=O)N1CCN(N=Cc2ccco2)C1=O)c1ccccc1` (stereo partly drawn) [Compound I, Sodium 3-[D-2-[(2-oxo-3-furfurylideneaminoimidazolidin-1-yl)-carboxamido]-2-phenylacetamido]-2-oxoazetidine-1-sulfonate], the MIC was 3.13 µg/mL in test [3]; 3.13 µg/mL with Escherichia coli 0-111; greater than 100 µg/mL in the test on Escherichia coli T-7; 3.13 µg/mL in test [4]; 3.13 µg/mL in test [5].
As to `CCN1CCN(C(=O)NC(C(=O)NC2CN(S(=O)(=O)O)C2=O)c2csc(N)n2)C(=O)C1=O` (stereo not drawn) [Compound D, Sodium 3-[2-(4-ethyl-2,3-dioxo-1-piperazinocarboxamido)-2-(2-amino-4-thiazolyl)-acetamido]-2-oxoazetidine-1-sulfonate], the MIC with Escherichia coli 0-111 was 0.1 µg/mL; in the test on Escherichia coli T-7, greater than 100 µg/mL.
Regarding `CC(=O)NC[C@H]1[C@@H](NC(=O)/C(=N\OC(C)(C)C(=O)O)c2csc(N)n2)C(=O)N1S(=O)(=O)O` (relative stereo) [Example No. 147C, cis-3-[2-(2-amino-4-thiazolyl)-2-(1-methyl-1-carboxyethyloxyimino)acetamido]-4-acetamidomethyl-2-oxoazetidine-1-sulfonic acid (syn-isomer)], the results for the MIC in test [1] and in [2] were 3.13 µg/mL (≈ 6.36 µM) and 0.39 µg/mL (≈ 0.792 µM), respectively.
Take `CO/N=C(\C(=O)N[C@H]1C(=O)N(S(=O)(=O)O)[C@H]1COC(N)=O)c1csc(N)n1` (relative stereo) [Example No. 138C, sodium cis-3-[2-(2-amino-4-thiazolyl)-2-methoxyiminoacetamido]-4-carbamoyloxymethyl-2-oxoazetidine-1-sulfonate (syn-isomer)]: the MIC in test [2] is 6.25 µg/mL.
On the same count and under the same terms, for `CC(=O)OC[C@H]1[C@@H](NC(=O)/C(=N\OC(C)(C)C(=O)O)c2csc(N)n2)C(=O)N1S(=O)(=O)O` (relative stereo) [Example No. 136C, cis-3-[2-(2-amino-4-thiazolyl)-2-(1-methyl-1-carboxyethyloxyimino)acetamido]-4-acetoxymethyl-2-oxoazetidine-1-sulfonic acid disodium salt (syn-isomer)] the value was 1.56 µg/mL.
Turning to `O=C(NC1CN(S(=O)(=O)O)C1=O)[C@H](NC(=O)N1CCN(N=Cc2cccs2)C1=O)c1ccccc1` (stereo partly drawn) [Compound K, Sodium 3-[D-2-[[2-oxo-3-(thiophen-2-aldoimino)-imidazolidin-1-yl]-carboxamido]-2-phenylacetamido]-2-oxoazetidine-1-sulfonate], the MIC in the test on Escherichia coli 0-111 was 0.39 µg/mL; in the test with Escherichia coli T-7 it was greater than 100 µg/mL.
Consider `COC(=O)[C@H]1[C@@H](NC(=O)/C(=N\OC(C)(C)C(=O)O)c2csc(N)n2)C(=O)N1S(=O)(=O)O` (relative stereo) [Example No. 68C, cis-3-[2-(2-amino-4-thiazolyl)-2-(1-methyl-1-carboxyethyloxyimino)acetamido]-4-methoxycarbonyl-2-oxoazetidine-1-sulfonic acid disodium salt], for which the MIC in [1] is 3.13 µg/mL; in test [2], 0.78 µg/mL.
Regarding `CCCCCCCCN1CCN(C(=O)NC(C(=O)NC2CN(S(=O)(=O)O)C2=O)c2csc(N)n2)C(=O)C1=O` (stereo not drawn) [Compound H, Sodium 3-[2-(4-n-octyl-2,3-dioxo-1-piperazinocarboxamido)-2-(2-amino-4-thiazolyl)-acetamido]2-oxoazetidine-1-sulfonate], the MIC in test [3] is 3.13 µg/mL; in the test on Escherichia coli 0-111 it was 3.13 µg/mL; in the test on Escherichia coli T-7 it was greater than 100 µg/mL; in [6] it was 3.13 µg/mL; in test [7], 3.13 µg/mL.
Consider `CCN1CCN(C(=O)N[C@@H](C(=O)NC2CN(S(=O)(=O)O)C2=O)c2ccccc2)C(=O)C1=O` (single isomer, unassigned) [Compound B, Sodium 3-[D(-)-N-(4-ethyl-2,3-dioxo-1-piperazinocarbonyl)-phenylglycinamido]-2-oxoazetidine-1-sulfonate], for which the MIC in the test with Escherichia coli 0-111 was 0.2 µg/mL; in the test with Escherichia coli T-7 it was greater than 100 µg/mL.
